Experimental data: BindingDB's records for patent US20250034135 (Hangzhou Healzen Therapeutics Co., 2025)

Tests used:
[1] = target: Apoptosis regulator Bcl-2 (Homo sapiens, UniProt P10415); assay: Molecular Level Activity Test of Anti-Apoptotic Protein BCL2
Method: (§1) The detection of the binding ability between anti-apoptotic protein BCL2 and pro-apoptotic protein Bim was performed using Homogeneous Time-Resolved Fluorescence technology. The reaction of this method occurred in a white shallow 384-well plate, with a total reaction volume of 10 μL. Specifically, it included 2 μL of the compound to be tested (2% DMSO), 4 μL His-tagged recombinant protein, and 4 μL Biotin-tagged BIM protein peptide. After 1 hour of reaction, 5 μL of each Anti-His and streptavidin-tagged XL665 antibody diluents diluted with a detection buffer were added. After incubating at room temperature for 4 hours, the values were read using the Envision multifunctional microplate reader to detect the effect of the compound to be tested on the binding ability of BCL2 to Bim protein peptides. The Envision parameter settings were exciting light at 320 nm, and emitting light at 615 nm and 665 nm. The binding ability of anti-apoptotic proteins to Bim protein peptides was indirectly reflected by the signal ratio of 665 nm and 615 nm. In the reaction, background wells without BCL2 and active wells for full binding of recombinant proteins without compounds and Bim protein peptides were set up.

[2] = target: Isoform Bcl-X(L) of Bcl-2-like protein 1 (Bcl-xL) (Homo sapiens, UniProt Q07817); assay: BCL-XL Enzyme Molecular Level Activity Test
Method: as §1, with “In a white” for “The detection of the binding ability between anti-apoptotic protein BCL2 and pro-apoptotic protein Bim was performed using Homogeneous Time-Resolved Fluorescence technology. The reaction of this method occurred in a white”, “384-well plate, a total” for “384-well plate, with a total”, “reaction volume was 10 μL.” for “reaction volume of 10 μL.”, “DMSO), […] His-tagged recombinant” for “DMSO), 4 μL His-tagged recombinant”, “ability of BCL-XL to BIM” for “ability of BCL2 to Bim”, “BCL-XL to BIM protein peptides.” for “BCL2 to Bim protein peptides.”

[3] = target: Apoptosis regulator Bcl-2 [G101V] (Homo sapiens, UniProt P10415, G101V); assay: Molecular Level Activity Test of Anti-Apoptotic Protein BCL2 (G101V)
Method: as §1, with “protein BCL2 (G101V) and pro-apoptotic” for “protein BCL2 and pro-apoptotic”, “reaction, 5 L of each” for “reaction, 5 μL of each”, “of BCL2 (G101V) to BIM” for “of BCL2 to Bim”, “(G101V) to BIM protein peptides.” for “BCL2 to Bim protein peptides.”

CYP3A4 = CYP3A4 (Homo sapiens, UniProt P08684); assay: CYP3A4 Enzyme Inhibitory Activity; settings: recombinant CYP3A4 (CYP450 BACULOSOMES Plus reagent), probe Vivid substrate (Vivid CYP3A4 Green kit)
Sequence of CYP3A4 (P08684 whole entry): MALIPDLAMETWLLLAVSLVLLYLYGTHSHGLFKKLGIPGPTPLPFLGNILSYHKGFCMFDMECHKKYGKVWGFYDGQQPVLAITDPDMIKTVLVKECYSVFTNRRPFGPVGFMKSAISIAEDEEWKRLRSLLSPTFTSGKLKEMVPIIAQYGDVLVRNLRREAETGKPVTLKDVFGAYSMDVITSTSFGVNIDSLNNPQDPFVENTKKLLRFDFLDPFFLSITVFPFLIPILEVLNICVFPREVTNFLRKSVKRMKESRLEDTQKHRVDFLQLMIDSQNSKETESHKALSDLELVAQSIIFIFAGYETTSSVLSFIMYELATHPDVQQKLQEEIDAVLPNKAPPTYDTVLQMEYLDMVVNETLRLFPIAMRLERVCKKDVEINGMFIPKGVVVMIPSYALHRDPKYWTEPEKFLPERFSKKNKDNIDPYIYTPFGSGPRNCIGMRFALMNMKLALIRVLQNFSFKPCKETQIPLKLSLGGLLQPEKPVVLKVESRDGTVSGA
Method: The inhibitory activity of compounds on human CYP3A4 enzyme was detected using a VIVID™ CYP3A4 GREEN SCRNING KIT reagent kit. The Vivid™ CYP450 screening kit includes a Vivid™ substrate, Vivid™ fluorescence standard, reaction buffer, Vivid™ regeneration system, NADP+ and CYP450 BACULOSOMES™ Plus reagent. Operations were performed following the instructions, and a blank control group was set up without adding any compounds.

Sequence of Isoform Bcl-X(L) of Bcl-2-like protein 1 (Bcl-xL) (Q07817 whole entry G70A, canonical isoform): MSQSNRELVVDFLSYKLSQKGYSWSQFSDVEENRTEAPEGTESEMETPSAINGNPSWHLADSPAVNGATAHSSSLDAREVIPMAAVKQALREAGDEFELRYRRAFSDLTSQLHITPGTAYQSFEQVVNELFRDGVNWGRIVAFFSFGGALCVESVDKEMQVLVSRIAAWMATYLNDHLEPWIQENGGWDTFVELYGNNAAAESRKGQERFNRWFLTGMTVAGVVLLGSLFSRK

Row | Structure (SMILES) | IC50 [1] [nM] | IC50 [2] [nM] | further results
1 | CC(C)c1ccccc1[C@@H]1CCCN1C1CC2(CCN(c3ccc(C(=O)NS(=O)(=O)c4cc([N+](=O)[O-])c(NCC5(F)CCN(C6COC6)CC5)c5[nH]cnc45)c(Oc4cnc5[nH]cc(F)c5c4)c3)CC2)C1 [US20250034135, Compound 012] | < 10 |  | 
2 | CC(C)c1ccccc1[C@@H]1CCCN1C1CC2(CCN(c3ccc(C(=O)NS(=O)(=O)c4cc([N+](=O)[O-])c(NCC5(F)CCN(C(C)C)CC5)c5c4ncn5C)c(Oc4cnc5[nH]ccc5c4)c3)CC2)C1 [US20250034135, Compound 008] | < 10 |  | 
3 | CC(C)c1ccccc1[C@@H]1CN(Cc2c(F)cccc2F)CCN1C1CC2(CCN(c3cc(Oc4cnc5[nH]ccc5c4)c(C(=O)NS(=O)(=O)c4ccc(NCC5(F)CCOCC5)c([N+](=O)[O-])c4)cc3F)CC2)C1 [US20250034135, Compound 192] | < 10 |  | 
4 | COc1ccccc1CN1CCN(C2CC3(CCN(c4cc(Oc5cnc6[nH]ccc6c5)c(C(=O)NS(=O)(=O)c5ccc(NCC6(F)CCOCC6)c([N+](=O)[O-])c5)cc4F)CC3)C2)[C@H](c2ccccc2C(C)C)C1 [US20250034135, Compound 185] | < 10 | > 500 | 
5 | CC(C)c1ccccc1[C@@H]1CN(Cc2ccc(F)cc2F)CCN1C1CC2(CCN(c3cc(Oc4cnc5[nH]ccc5c4)c(C(=O)NS(=O)(=O)c4ccc(NCC5(F)CCOCC5)c([N+](=O)[O-])c4)cc3F)CC2)C1 [US20250034135, Compound 191] | < 10 |  | 
6 | CC(C)c1ccccc1[C@@H]1CCCN1C1CC2(CCN(c3cc(Oc4cnc5[nH]cc(F)c5c4)c(C(=O)NS(=O)(=O)c4cc([N+](=O)[O-])c(NCC5(F)CCN(C6COC6)CC5)c5[nH]cnc45)cc3F)CC2)C1 [US20250034135, Compound 038] | < 10 |  | 
7 | COc1ccc(CN2CCN(C3CC4(C3)CN(c3cc(Oc5cnc6[nH]ccc6c5)c(C(=O)NS(=O)(=O)c5ccc(NCC6(F)CCN(C7COC7)CC6)c([N+](=O)[O-])c5)cc3F)C4)C(c3ccccc3C(C)C)C2)cc1 (stereo unspecified) [US20250034135, Compound 058] |  | > 1000 | IC50 [3]: < 10 nM
8 | CC(C)c1ccccc1[C@@H]1CCCN1C1CC2(CCN(c3cc(Oc4cnc5[nH]ccc5c4)c(C(=O)NS(=O)(=O)c4cc([N+](=O)[O-])c(NCC5(F)CCN(C6COC6)CC5)c5c4ncn5C)cc3F)CC2)C1 [US20250034135, Compound 036] | < 10 |  | 
9 | CC(C)c1ccccc1[C@@H]1CN(Cc2cnn(C)c2)CCN1C1CC2(CCN(c3cc(Oc4cnc5[nH]ccc5c4)c(C(=O)NS(=O)(=O)c4ccc(NC[C@H]5CC[C@](C)(O)CC5)c([N+](=O)[O-])c4)cc3F)CC2)C1 [US20250034135, Compound 238] |  | > 500 | 
10 | COc1ccc(CN2CCN(C3CC4(CCN(c5ccc(C(=O)NS(=O)(=O)c6ccc(NC[C@H]7CC[C@](C)(O)CC7)c([N+](=O)[O-])c6)c(OC(C=N)Cc6cc[nH]c6)c5)CC4)C3)[C@H](c3ccccc3C(C)C)C2)cc1 (stereo partly specified) [US20250034135, Compound a] |  |  | IC50 (CYP3A4): 2550 nM
11 | CC(C)c1ccccc1[C@@H]1CN(Cc2ccccc2F)CCN1C1CC2(CCN(c3cc(Oc4cnc5[nH]ccc5c4)c(C(=O)NS(=O)(=O)c4ccc(NCC5(F)CCOCC5)c([N+](=O)[O-])c4)cc3F)CC2)C1 [US20250034135, Compound 187] | < 10 | > 500 | 
12 | CC(C)c1ccccc1[C@@H]1CCCN1C1CC2(CCN(c3cc(Oc4cnc5[nH]ccc5c4)c(C(=O)NS(=O)(=O)c4cc([N+](=O)[O-])c(NCC5(F)CCN(C6COC6)CC5)c5[nH]cnc45)cc3F)CC2)C1 [US20250034135, Compound 020] | < 10 |  | 
13 | COc1ccc(CN2CCN(C3CC4(CCN(c5cc(Oc6cnc7[nH]ccc7c6)c(C(=O)NS(=O)(=O)c6ccc(NCC7(F)CCN(C8COC8)CC7)c([N+](=O)[O-])c6)cc5F)CC4)C3)C(c3ccccc3C(C)C)C2)cc1 (stereo unspecified) [US20250034135, Compound 057] | < 10 |  | 
